For 24 compounds, IC50 results are on record in US20230159453A1 (COCRYSTAL PHARMA, INC., priority 2020, published 2023).

The target of the test is SARS2 protease (Severe acute respiratory syndrome coronavirus 2, UniProt P0DTD1). The experiment in a line: SARS-CoV-2 protease inhibition assay (SARS2 FRET protease assay). Type of test: biochemical. The settings on record: SARS-CoV-2 protease 25 nM, FRET, peptide substrate 1.3 μM, 30 minutes at 30° C., compounds 20 μM to 1.0 nM; read-out: IC50.

What is called IC50 is the point on the concentration scale where inhibition reaches its midpoint.

Structures are written as SMILES.

In the case of `CC(C)C[C@H](NC(=O)OC(c1ccc(Cl)cc1)C1(c2cccc(Cl)c2)CC1)C(=O)N[C@@H](C[C@@H]1CCNC1=O)C(=O)C(=O)NC1CC1` (stereo partly drawn) [Compound C201, (4-Chlorophenyl)(1-(3-chlorophenyl)cyclopropyl) methyl ((S)-1-(((S)-4-(cyclopropylamino)-3,4-dioxo-1-((S)-2-oxopyrrolidin-3-yl)butan-2-yl)amino)-4-methyl-1-oxopentan-2-yl) carbamate], the IC50 was found to be 4.4 nM.
Under `CC(C)(C)C(=O)N1CCC2(CC1)CC(CC(C=O)NC(=O)[C@H](CC1CCCCC1)NC(=O)OC1CCCC1Cc1cccc(Cl)c1)C(=O)N2` (stereo partly drawn) [Compound C202, 2-(3-Chlorobenzyl) cyclopentyl ((2S)-3-cyclohexyl-1-oxo-1-((1-oxo-3-(2-oxo-8-pivaloyl-1,8-diazaspiro[4.5]decan-3-yl)propan-2-yl)amino)propan-2-yl)carbamate] stands 644 nM; under `CC(C)C[C@H](NC(=O)OC(c1cccc(Cl)c1)C1(c2cccc(Cl)c2)CC1)C(=O)N[C@H](C=O)C[C@@H]1CCNC1=O` (stereo partly drawn) [Compound C203, (3-chlorophenyl)(1-(3-chlorophenyl)cyclopropyl)methyl ((S)-4-methyl-1-oxo-1-(((S)-1-oxo-3-((S)-2-oxopyrrolidin-3-yl)propan-2-yl)amino)pentan-2-yl)carbamate], 10.5 nM; under `CC(C)C[C@H](NC(=O)OC1(Cc2cccc(Cl)c2)CCC1)C(=O)NC(C=O)CC1CC2(CCOCC2)NC1=O` (stereo partly drawn) [Compound C204], 224 nM.
To `CC1(C)CC(CC(NC(=O)[C@H](CC2CCCCC2)NC(=O)OC(c2cccc(F)c2)C(C)(C)c2cccc(Cl)c2)C(=O)C(=O)NC2CC2)C(=O)N1` (stereo partly drawn) [Compound C205, 2-(3-Chlorophenyl)-1-(3-fluorophenyl)-2-methylpropyl ((2S)-3-cyclohexyl-1-((4-(cyclopropylamino)-1-(5,5-dimethyl-2-oxopyrrolidin-3-yl)-3,4-dioxobutan-2-yl)amino)-1-oxopropan-2-yl)carbamate] belongs 2560 nM; to `O=C(N[C@@H](CC1CCCCC1)C(=O)NC(CC1CC2(CCOCC2)NC1=O)C(=O)C(=O)NC1CC1)OC1CCCC1Cc1cccc(Cl)c1` (stereo partly drawn) [Compound C206, 2-(3-Chlorobenzyl)cyclopentyl ((2S)-3-cyclohexyl-1-((4-(cyclopropylamino)-3,4-dioxo-1-(2-oxo-8-oxa-1-azaspiro[4.5]decan-3-yl)butan-2-yl)amino)-1-oxopropan-2-yl)carbamate], 5110 nM; to `CC(C)C[C@H](NC(=O)OC(c1ccccc1)C(C)(C)c1cccc(Cl)c1)C(=O)N[C@@H](C[C@@H]1CCNC1=O)C(=O)C(N)=O` (stereo partly drawn) [Compound C207, 2-(3-Chlorophenyl)-2-methyl-1-phenylpropyl ((S)-1-(((S)-4-amino-3,4-dioxo-1-((S)-2-oxopyrrolidin-3-yl)butan-2-yl)amino)-4-methyl-1-oxopentan-2-yl)carbamate], 315 nM.
Under `CC(C)C[C@H](NC(=O)OC(c1ccccc1)C(C)(C)c1cccc(Cl)c1)C(=O)N[C@@H](C[C@@H]1CCNC1=O)C(=O)CCl` (stereo partly drawn) [Compound C209, 2-(3-Chlorophenyl)-2-methyl-1-phenylpropyl ((S)-1-(((S)-4-chloro-3-oxo-1-((S)-2-oxopyrrolidin-3-yl)butan-2-yl)amino)-4-methyl-1-oxopentan-2-yl)carbamate] stands 1870 nM.
As for `CC(C)(C)C(=O)N1CCC2(CC1)CC(CC(NC(=O)[C@H](CC1CCCCC1)NC(=O)OC1CCCC1Cc1cccc(Cl)c1)C(=O)C(=O)NC1CC1)C(=O)N2` (stereo partly drawn) [Compound C210, 2-(3-Chlorobenzyl) cyclopentyl ((2S)-3-cyclohexyl-1-((4-(cyclopropylamino)-3,4-dioxo-1-(2-oxo-8-pivaloyl-1,8-diazaspiro[4.5]decan-3-yl)butan-2-yl)amino)-1-oxopropan-2-yl) carbamate], the IC50 turned out to be 2650 nM.
To `CCNC(=O)C(=O)[C@H](C[C@@H]1CCNC1=O)NC(=O)[C@H](CC1CCCCC1)NC(=O)OC(c1ccccc1)C(C)(C)c1cccc(Cl)c1` (stereo partly drawn) [Compound C211, 2-(3-Chlorophenyl)-2-methyl-1-phenylpropyl ((S)-3-cyclohexyl-1-(((S)-4-(ethylamino)-3,4-dioxo-1-((S)-2-oxopyrrolidin-3-yl)butan-2-yl)amino)-1-oxopropan-2-yl) carbamate] belongs 339 nM; to `CC(C)(C)C(=O)N1CCC2(CC1)CC(CC(C=O)NC(=O)[C@H](CC1CCCCC1)NC(=O)OCc1cccc(Cl)c1)C(=O)N2` (stereo partly drawn) [Compound C212, 3-Chlorobenzyl ((2S)-3-cyclohexyl-1-oxo-1-((1-oxo-3-(2-oxo-8-pivaloyl-1,8-diazaspiro[4.5]decan-3-yl)propan-2-yl)amino)propan-2-yl)carbamate], 194 nM.
Consider `O=C(N[C@@H](CC1CCCCC1)C(=O)N[C@@H](C[C@@H]1CCNC1=O)C(=O)C(=O)NC1CC1)OC(c1cccc(Cl)c1)C1(c2cccc(Cl)c2)CC1` (stereo partly drawn) [Compound C213], for which the IC50 turned out to be 257 nM.
Take `COc1cccc2[nH]c(C(=O)N[C@@H](CC(C)C)C(=O)NC(C=O)CC3CC4(CCCCC4)NC3=O)cc12` (stereo partly drawn) [Compound C214, 4-Methoxy-N-((2S)-4-methyl-1-oxo-1-((1-oxo-3-(2-oxo-1-azaspiro[4.5]decan-3-yl)propan-2-yl)amino)pentan-2-yl)-1H-indole-2-carboxamide]: the IC50 came to 11 nM.
As to `CC(C)C(OC(=O)N[C@@H](CC1CCCCC1)C(=O)N[C@@H](C[C@@H]1CCNC1=O)C(=O)C(N)=O)c1ccccc1` (stereo partly drawn) [Compound C216, 2-Methyl-1-phenylpropyl ((S)-1-(((S)-4-amino-3,4-dioxo-1-((S)-2-oxopyrrolidin-3-yl)butan-2-yl)amino)-3-cyclohexyl-1-oxopropan-2-yl)carbamate], the half-maximal inhibitory concentration (IC50) was 3100 nM.
On to `CC1(C)CC(CC(NC(=O)[C@H](CC2CCCCC2)NC(=O)OC(Cc2cccc(Cl)c2)c2ccccc2)C(=O)C(N)=O)C(=O)N1` (stereo partly drawn) [Compound C217, 2-(3-Chlorophenyl)-1-phenylethyl ((2S)-1-((4-amino-1-(5,5-dimethyl-2-oxopyrrolidin-3-yl)-3,4-dioxobutan-2-yl)amino)-3-cyclohexyl-1-oxopropan-2-yl) carbamate], for which the IC50 stood at 3990 nM.
Take `CC(C)C[C@H](NC(=O)OC(c1ccccc1)C(C)(C)c1cccc(Cl)c1)C(=O)NC(CC1CC(C)(C)NC1=O)C(=O)C(N)=O` (stereo partly drawn) [Compound C218, 2-(3-Chlorophenyl)-2-methyl-1-phenylpropyl ((2S)-1-((4-amino-1-(5,5-dimethyl-2-oxopyrrolidin-3-yl)-3,4-dioxobutan-2-yl)amino)-4-methyl-1-oxopentan-2-yl)carbamate]: the IC50 is 1850 nM.
Under `CC1(C)CC(CC(NC(=O)[C@H](CC2CCCCC2)NC(=O)OC(c2cccc(F)c2)C(C)(C)c2cccc(Cl)c2)C(=O)C(N)=O)C(=O)N1` (stereo partly drawn) [Compound C220, 2-(3-Chlorophenyl)-1-(3-fluorophenyl)-2-methylpropyl ((2S)-1-((4-amino-1-(5,5-dimethyl-2-oxopyrrolidin-3-yl)-3,4-dioxobutan-2-yl)amino)-3-cyclohexyl-1-oxopropan-2-yl)carbamate] stands 1830 nM; under `CC1(C)CC(CC(C=O)NC(=O)[C@H](CC2CCCCC2)NC(=O)OC(c2cccc(F)c2)C(C)(C)c2cccc(Cl)c2)C(=O)N1` (stereo partly drawn) [Compound C222, 2-(3-Chlorophenyl)-1-(3-fluorophenyl)-2-methylpropyl ((2S)-3-cyclohexyl-1-((1-(5,5-dimethyl-2-oxopyrrolidin-3-yl)-3-oxopropan-2-yl)amino)-1-oxopropan-2-yl)carbamate], 235 nM; under `O=CC(CC1CC2(CCCCC2)NC1=O)NC(=O)[C@H](CC1CCCCC1)NC(=O)OC1CCCC1Cc1cccc(Cl)c1` (stereo partly drawn) [Compound C223, 2-(3-Chlorobenzyl)cyclopentyl ((2S)-3-cyclohexyl-1-oxo-1-((1-oxo-3-(2-oxo-1-azaspiro[4.5]decan-3-yl)propan-2-yl)amino)propan-2-yl)carbamate], 781 nM.
Under `O=C[C@H](C[C@@H]1CCNC1=O)NC(=O)[C@H](CC1CCCCC1)NC(=O)O[C@H]1CCC[C@H]1Cc1cccc(Cl)c1` [Compound C224, (1S,2S)-2-(3-Chlorobenzyl) cyclopentyl ((S)-3-cyclohexyl-1-oxo-1-(((S)-1-oxo-3-((S)-2-oxopyrrolidin-3-yl)propan-2-yl)amino)propan-2-yl) carbamate] stands 183 nM; under `O=CC(CC1CC2(CCOCC2)NC1=O)NC(=O)[C@H](CC1CCCCC1)NC(=O)OC1CCCC1Cc1cccc(Cl)c1` (stereo partly drawn) [Compound C225, 2-(3-chlorobenzyl)cyclopentyl ((2S)-3-cyclohexyl-1-oxo-1-((1-oxo-3-(2-oxo-8-oxa-1-azaspiro[4.5]decan-3-yl)propan-2-yl)amino)propan-2-yl)carbamate], 1010 nM; under `CC(C)C[C@H](NC(=O)OC(c1ccc(Cl)cc1)C(C)(C)c1cccc(Cl)c1)C(=O)N[C@@H](C[C@@H]1CCNC1=O)C(=O)C(=O)NC1CC1` (stereo partly drawn) [Compound C226, 2-(3-chlorophenyl)-1-(4-chlorophenyl)-2-methylpropyl ((S)-1-(((S)-4-(cyclopropylamino)-3,4-dioxo-1-((S)-2-oxopyrrolidin-3-yl)butan-2-yl)amino)-4-methyl-1-oxopentan-2-yl)carbamate], 57 nM.
On to `COc1cccc2[nH]c(C(=O)N[C@@H](CC(C)C)C(=O)NC(CC3CC4(CCCCC4)NC3=O)C(=O)CCl)cc12` (stereo partly drawn) [Compound C227, N-((2S)-1-((4-chloro-3-oxo-1-(2-oxo-1-azaspiro[4.5]decan-3-yl)butan-2-yl)amino)-4-methyl-1-oxopentan-2-yl)-4-methoxy-1H-indole-2-carboxamide], for which the IC50 was 59 nM.
Under `O=C(O)C(=O)C(CC1CC2(CCCCC2)NC1=O)NC(=O)[C@H](CC1CCCCC1)NC(=O)c1cc2ccccc2[nH]1` (stereo partly drawn) [Compound C228, 3-((S)-3-Cyclohexyl-2-(1H-indole-2-carboxamido)propanamido)-2-oxo-4-(2-oxo-1-azaspiro[4.5]decan-3-yl)butanoic acid] stands 120 nM.
